For 4 compounds, IC50, Koff and Kd results are on record in ChEMBL document CHEMBL1149151, “Macrocyclization in the design of non-phosphorus-containing Grb2 SH2 domain-binding ligands” (J Med Chem, 2004).

For data set [1], the target named is T1, Growth factor receptor-bound protein 2 (Homo sapiens, UniProt P62993). The data set is described as follows: In vitro Growth factor receptor bound protein 2-binding affinity in ELISA method. In general terms: In an ELISA, binding on a coated surface is turned into a signal by an enzyme label.
The nature of data set [2]: koff value surface plasmon resonance (SPR) method. Format: ADME. (SPR reads the build-up and loss of mass on a sensor chip optically.)
Data set [3] is described as follows: kd value surface plasmon resonance (SPR) method. In kind it is ADME.
Data set [4] addresses T1, Growth factor receptor-bound protein 2. Description: In vitro Growth factor receptor bound protein 2-binding affinity in surface plasmon resonance (SPR) method.

Several values for one entry are separate records, joined by “and”; a condition that tells them apart may be missing. Equal values may be shown once.

T1 sequence (P62993 whole entry): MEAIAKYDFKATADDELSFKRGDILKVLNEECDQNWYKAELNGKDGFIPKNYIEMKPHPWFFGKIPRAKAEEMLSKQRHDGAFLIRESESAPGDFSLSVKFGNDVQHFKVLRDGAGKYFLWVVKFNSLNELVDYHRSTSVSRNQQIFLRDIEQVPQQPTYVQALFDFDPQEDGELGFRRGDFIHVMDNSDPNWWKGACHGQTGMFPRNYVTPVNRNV

Regarding `NC(=O)C[C@H](NC(=O)C1(NC(=O)[C@H](Cc2ccc(C(C(=O)O)C(=O)O)cc2)NC(=O)C(=O)O)CCCCC1)C(=O)NCCCc1cccc2ccccc12`, in data set [1], the IC50 (commonly the point on the concentration scale where inhibition reaches its midpoint) turned out to be 22.1 nM.

In data set [2], `NC(=O)C[C@@H]1NC(=O)C2(CCCCC2)NC(=O)[C@@H](CC(=O)O)[C@@H](c2ccc(CP(=O)(O)O)cc2)/C=C/C[C@@H](Cc2cccc3ccccc23)CNC1=O` had a Koff of 0.0056 s⁻¹. In addition, binding in data set [3] was characterised by a dissociation constant (Kd) of 0.9 nM. For the same compound, the IC50 in data set [4] is 1.4 nM and 12.1 nM.

As to `NC(=O)C[C@H](NC(=O)C1(NC(=O)[C@H](Cc2ccc(CP(=O)(O)O)cc2)NC(=O)C(=O)O)CCCCC1)C(=O)NCCCc1cccc2ccccc12`, the Koff in data set [2] turned out to be 0.11 s⁻¹. Moreover, in data set [3], the Kd (as a rule, the constant that tells how readily two partners part at equilibrium) is 128 nM. Moreover, the IC50 was 10 nM in data set [1] and about 80 nM in data set [4].

The compound `NC(=O)C[C@@H]1NC(=O)C2(CCCCC2)NC(=O)[C@@H](CC(=O)O)[C@@H](c2ccc(C(C(=O)[O-])C(=O)[O-])cc2)/C=C/C[C@@H](Cc2cccc3ccccc23)CNC1=O.[Na+].[Na+]` displayed a Koff in data set [2] of 0.044 s⁻¹. The compound also showed a Kd in data set [3] of 12.1 nM. Besides, the IC50 in data set [1] came out at 4.3 nM; in data set [4] it was 12.1 nM.
